Experimental data from patent US5846545A, “Targeted delivery of cyclopropylbenzindole-containing cytotoxic drugs” (Immunogen, Inc., priority 1995, dated 1998).

What was measured:
P388 leukemia = conditions: cited from earlier work
[1] = tested on: human small cell lung cancer cell line SW2; experiment: In vitro cytotoxicity to SW2 cells, 24 h exposure, growth back-extrapolation assay; type: cell-based; conditions: 24 h exposure to the drug, read-out: IC50, free drug, SW2 cells
Experimental: Disulfide-containing and mercapto-containing analogues and derivatives of CC-1065 of the invention can be evaluated for their ability to suppress proliferation of various unwanted cell lines in vitro. For example, cell lines such as the human epidermoid carcinoma line KB, the human breast tumor line SKBR3, and the Burkitt's lymphoma line Namalwa can easily be used for the assessment of cytotoxicity of these compounds. Cells to be evaluated can be exposed to the compounds for 24 hours and the surviving fractions of cells measured in direct assays by known methods. IC50 values can then be calculated from the results of the assays.
Cytotoxicity of the analogues and derivatives of CC-1065 and their conjugates with cell binding agents to non-adherent cell lines such as Namalwa and SW2 can be measured by back-extrapolation of cell proliferation curves as described in Goldmacher et al, 135 J. Immunol. […] Cytotoxicity of these compounds to adherent cell lines such as A-375 and SCaBER can be determined by clonogenic assays as described in Goldmacher et al, 102 J. Cell Biol. 1312-1319 (1986). […]
In vitro cytotoxicity of N901-SS-Drug 7. The in vitro cytotoxicity of a disulfide-linked conjugate of the mono-indolyl CPI derivative 7 with the antibody N901, containing on the average 3.3 drug molecules per antibody molecule, was measured on antigen positive SW2 cells and antigen negative Namalwa cells. […]

[2] = single i.v. dose of 12.5 μg/kg; cited from earlier work
[3] = in vitro; cited from earlier work

Row | SMILES | treated mice surviving beyond 30 days (P388 leukemia; 0.05 mg/kg i.p. on days 1, 5 and 9) | increase in life span over untreated controls (P388 leukemia; optimal dose 0.05 mg/kg i.p. on days 1, 5 and 9) | IC50 [1] | delayed hepatotoxicity leading to death, time of death [2] | fold more cytotoxic than methotrexate, daunorubicin and vincristine [3]
1 | Cc1c[nH]c2c1[C@@]13C[C@@H]1CN(C(=O)c1cc4cc(NC(=O)c5cc6ccccc6o5)ccc4[nH]1)C3=CC2=O [U-73975] | 1 out of 6 | 170% |  |  | 
2 | COc1c(O)c2c(c3cc(C(=O)N4CCc5c4c(O)c(OC)c4[nH]c(C(=O)N6CC7CC78C6=CC(=O)c6[nH]cc(C)c68)cc54)[nH]c13)CCN2C(N)=O (centres unmarked) [CC-1065] |  |  | 0.2 nM | 50 days | 100 to 1000 fold
